Assay results published in paper PMC5773651, “Customised in vitro model to detect human metabolism-dependent idiosyncratic drug-induced liver injury” (Archives of Toxicology, 2017).
Read-outs that look alike come from different tables or passages of the source. Marks after values point to notes of the source that are not given here. Blank lines part the entries; values can stand above or below the molecule they belong to.

Experiments:
[1] = tested on: HepG2 cells; test: Cell viability (PI), IC50, control HepG2 cells; assay type: cell-based; settings: Homo sapiens; control non-transduced HepG2; 24 h; unit inferred, tested range in µM; read-out: IC50 (cell viability), C
[2] = tested on: HepG2 cells transduced with AdCYP2C9; test: Cell viability (PI), IC50, AdCYP2C9-HepG2; assay type: cell-based; settings: Homo sapiens, unit inferred, tested range in µM
[3] = tested on: HepG2 cells transduced with AdCYP2C19; test: Cell viability (PI), IC50, AdCYP2C19-HepG2; assay type: cell-based; settings: Homo sapiens, unit inferred, tested range in µM
Experimental: (§1) For subculturing purposes, cells were detached by treatment with 0.25% trypsin/0.02% EDTA at 37 °C. For the adenovirus infection studies, cells were seeded in 96-well plates (5000 cells/well) and adenovirus-containing medium was added 48 h later. After 24 h, cells were transferred to the adenovirus-free medium and cultured for an additional 24-h period prior to the incubations performed with the test chemicals. To optimise the expression of the functional enzymes in the adenovirus-transduced HepG2 (Ad-HepG2) cells, different doses (MOI, multiplicity of infection, defined as plaque formation units per cell) of each adenovirus were tested.
(§2) The drugs included in the study were chosen based on previous information about their hepatotoxicity. Information on the potential mechanisms implicated in the toxicity of each compound and the major enzymes involved in their metabolism is summarised in Table 1. HepG2 or Ad-HepG2 (48 h post-infection) cells were exposed for 24 h to eight concentrations of the tested compounds. Each experimental condition was repeated independently three times (with three wells measured each time). The stock solutions of compounds were prepared in DMSO and were conveniently diluted in the culture medium to obtain the desired final concentrations. The final DMSO concentration in the culture medium was 0.5% (v/v), and the control cultures were treated with the same amount of solvent.
(§3) Following treatments, cells were simultaneously loaded with several fluorescent dyes to measure multiple biomarkers of cell toxicity. […] Information about the probes is summarised in Supplementary Table S2.
(§4) After incubating with dyes, cells were imaged by the Scan^R system (Olympus, Germany). Dyes were excited, and their fluorescence was monitored at the excitation and emission wavelengths at appropriate filter settings. The collected images were analysed using the Scan^R analysis module, which allows the simultaneous quantification of subcellular structures that are stained by different fluorescent probes.

[4] = tested on: HepG2 cells transduced with AdCYP3A4; test: Cell viability (PI), IC50, AdCYP3A4-HepG2; assay type: cell-based; settings: Homo sapiens, unit inferred, tested range in µM
Experimental: as §1, §2, §3, §4

[5] = tested on: HepG2 cells transduced with AdCYP3A4; test: HCS hepatotoxicity assay (MEC, TR), AdCYP3A4-HepG2; assay type: cell-based, human; settings: 24 h; for TR: TR = 100 x Cmax/lowest MEC; for MEC Apoptosis / MEC Calcium / MEC MMP / MEC Mitochondrial superoxide / MEC ROS: unit not given, tested range in µM
[6] = tested on: HepG2 cells; settings: human, 24 h
Experimental: as §1, §2, §3, §4

[7] = tested on: HepG2 cells co-transduced with AdCYP3A4 and AdCYP2C9; test: HCS hepatotoxicity assay (MEC, TR), AdCYP3A4 + AdCYP2C9 HepG2; assay type: cell-based, human; settings: 24 h; for TR: TR = 100 x Cmax/lowest MEC; for MEC Apoptosis / MEC Calcium / MEC MMP / MEC Mitochondrial superoxide / MEC ROS: unit not given, tested range in µM
[8] = tested on: HepG2 cells co-transduced with AdCYP3A4 and AdUGT2B7; test: HCS hepatotoxicity assay (MEC, TR), AdCYP3A4 + AdUGT2B7 HepG2; assay type: cell-based, human; settings: 24 h; for TR: TR = 100 x Cmax/lowest MEC; for MEC Apoptosis / MEC Calcium / MEC MMP / MEC Mitochondrial superoxide / MEC ROS: unit not given, tested range in µM
[9] = tested on: HepG2 cells transduced with CYP3A4 in the presence of CYP2C19; test: HCS hepatotoxicity assay (MEC, TR), AdCYP3A4 + AdCYP2C19 HepG2; assay type: cell-based, human; settings: CYP3A4-4X + CYP2C19-1X, 24 h
Description: For all the compounds and studied parameters, the MEC led to at least a 20% variation in fluorescence intensity or in the corresponding morphological parameter compared to the untreated cultures.

[10] = ref Atienzar et al. ([2014]), Garside et al. ([2014]), Tolosa et al. ([2012b]); cited from earlier work
[11] = tested on: HepG2 cells transduced with AdCYP2C9; test: HCS hepatotoxicity assay (MEC, TR), AdCYP2C9-HepG2; assay type: cell-based, human; settings: 24 h; for TR: TR = 100 x Cmax/lowest MEC; for MEC Apoptosis / MEC Calcium / MEC MMP / MEC Mitochondrial superoxide / MEC ROS: unit inferred, tested range in µM
Experimental: as §1, §2, §3, §4

[12] = cited from earlier work; for Bioactivation / Enzyme: major enzyme(s) involved in the bioactivation (denoted as *) or detoxification of the drug: previous information; for Toxicity (mechanisms of toxicity): ref Ashrafian et al. [2007], Donato et al. [2009], Fromenty and Pessayre [1997], Rolo et al. [2000], Tolosa et al. [2012b]
[13] = ADV CYP2C9 x1, 24 h, read-out: IC50 (cell viability), ADV dose x1
[14] = ADV CYP2C9 x4, 24 h, read-out: IC50 (cell viability), ADV dose x4
[15] = ADV CYP2C9 x10, 24 h, read-out: IC50 (cell viability), ADV dose x10
[16] = ADV CYP3A4 x1, 24 h, read-out: IC50 (cell viability), ADV dose x1
[17] = ADV CYP3A4 x4, 24 h, read-out: IC50 (cell viability), ADV dose x4
[18] = ADV CYP3A4 x10, 24 h, read-out: IC50 (cell viability), ADV dose x10
[19] = unit not given, tested range in µM

Structure (SMILES): O=C(O)Cc1ccccc1Nc1c(Cl)cccc1Cl [Diclofenac]
- IC50 [1]: 167 µM
- IC50 [2, 13]: 42.1 µM
- IC50 [2, 14]: 51.6 µM
- IC50 [2, 15]: 15.5 µM
- IC50 ([3]; ADV CYP2C19 x1, 24 h, read-out: IC50 (cell viability), ADV dose x1): 140 µM
- IC50 ([3]; ADV CYP2C19 x4, 24 h, read-out: IC50 (cell viability), ADV dose x4): 158 µM
- IC50 ([3]; ADV CYP2C19 x10, 24 h, read-out: IC50 (cell viability), ADV dose x10): 11.5 µM
- IC50 [4, 16]: 126 µM
- IC50 [4, 17]: 99 µM
- IC50 [4, 18]: 2.8 µM
- TR ([5]; AdCYP 3A4 1x): 42
- MEC Apoptosis ([5]; AdCYP 3A4 1x): 125
- MEC Calcium ([5]; AdCYP 3A4 1x): 10
- MEC MMP ([5]; AdCYP 3A4 1x): 125
- MEC Mitochondrial superoxide ([5]; AdCYP 3A4 1x): 50
- MEC ROS ([5]; AdCYP 3A4 1x): 10
- TR ([5]; AdCYP 3A4 4x): 84
- MEC Apoptosis ([5]; AdCYP 3A4 4x): 10
- MEC Calcium ([5]; AdCYP 3A4 4x): 10
- MEC MMP ([5]; AdCYP 3A4 4x): 125
- MEC Mitochondrial superoxide ([5]; AdCYP 3A4 4x): 5
- MEC ROS ([5]; AdCYP 3A4 4x): 5
- MEC Apoptosis [6]: 125 µM
- MEC Calcium [6]: 50
- MEC MMP [6]: 250
- MEC Mitochondrial superoxide [6]: 125
- MEC ROS [6]: 50
- TR [6]: 8.4
- TR ([7]; CYP3A4-1X + CYP2C9-1X): 84
- MEC Apoptosis ([7]; CYP3A4-1X + CYP2C9-1X): 125
- MEC Calcium ([7]; CYP3A4-1X + CYP2C9-1X): 10
- MEC MMP ([7]; CYP3A4-1X + CYP2C9-1X): 125
- MEC Mitochondrial superoxide ([7]; CYP3A4-1X + CYP2C9-1X): 50
- MEC ROS ([7]; CYP3A4-1X + CYP2C9-1X): 5
- TR ([7]; CYP3A4-4X + CYP2C9-1X): 84
- MEC Apoptosis ([7]; CYP3A4-4X + CYP2C9-1X): 10
- MEC Calcium ([7]; CYP3A4-4X + CYP2C9-1X): 10
- MEC MMP ([7]; CYP3A4-4X + CYP2C9-1X): 125
- MEC Mitochondrial superoxide ([7]; CYP3A4-4X + CYP2C9-1X): 5
- MEC ROS ([7]; CYP3A4-4X + CYP2C9-1X): 5
- TR ([8]; CYP3A4-1X + UGT2B7): 84
- MEC Apoptosis ([8]; CYP3A4-1X + UGT2B7): 5
- MEC Calcium ([8]; CYP3A4-1X + UGT2B7): 10
- MEC MMP ([8]; CYP3A4-1X + UGT2B7): 50
- MEC Mitochondrial superoxide ([8]; CYP3A4-1X + UGT2B7): 5
- MEC ROS ([8]; CYP3A4-1X + UGT2B7): 5
- TR ([8]; CYP3A4-4X + UGT2B7): 84
- MEC Apoptosis ([8]; CYP3A4-4X + UGT2B7): 5
- MEC Calcium ([8]; CYP3A4-4X + UGT2B7): 5
- MEC MMP ([8]; CYP3A4-4X + UGT2B7): 50
- MEC Mitochondrial superoxide ([8]; CYP3A4-4X + UGT2B7): 5
- MEC ROS ([8]; CYP3A4-4X + UGT2B7): 5
- TR ([9]; TR = 100 x Cmax/lowest MEC): 42
- MEC Apoptosis [9, 19]: 50
- MEC Calcium [9, 19]: 50
- MEC MMP [9, 19]: 125
- MEC Mitochondrial superoxide [9, 19]: 10
- MEC ROS [9, 19]: 10
- Cmax [10]: 4.2 µM

- IC50 [1]: > 1200 µM
- IC50 [2, 13]: > 1200 µM
- IC50 [2, 14]: 1160 µM
- IC50 [2, 15]: 846 µM
- MEC Calcium [6]: 800
- MEC MMP [6]: >1200
- MEC Mitochondrial superoxide [6]: 800
- MEC ROS [6]: 1200
- TR [6]: 10.3
Structure (SMILES): O=C(O)COc1ccc(C(=O)c2cccs2)c(Cl)c1Cl [Tienilic acid]
- TR ([11]; AdCYP 2C9 1x): 13.8
- MEC Apoptosis ([11]; AdCYP 2C9 1x): 600 µM
- MEC Calcium ([11]; AdCYP 2C9 1x): 600 µM
- MEC MMP ([11]; AdCYP 2C9 1x): > 1200 µM
- MEC Mitochondrial superoxide ([11]; AdCYP 2C9 1x): 600 µM
- MEC ROS ([11]; AdCYP 2C9 1x): 800 µM
- TR ([11]; AdCYP 2C9 4x): 20.7
- MEC Apoptosis ([11]; AdCYP 2C9 4x): 400 µM
- MEC Calcium ([11]; AdCYP 2C9 4x): 400 µM
- MEC MMP ([11]; AdCYP 2C9 4x): > 1200 µM
- MEC Mitochondrial superoxide ([11]; AdCYP 2C9 4x): 400 µM
- MEC ROS ([11]; AdCYP 2C9 4x): 600 µM
- TR ([11]; AdCYP 2C9 10x): 41.3
- MEC Apoptosis ([11]; AdCYP 2C9 10x): 200 µM
- MEC Calcium ([11]; AdCYP 2C9 10x): 200 µM
- MEC MMP ([11]; AdCYP 2C9 10x): > 1200 µM
- MEC Mitochondrial superoxide ([11]; AdCYP 2C9 10x): 400 µM
- MEC ROS ([11]; AdCYP 2C9 10x): 400 µM
- MEC Apoptosis [6]: 1200 µM
- Cmax [10]: 82.7 µM
- Bioactivation [12]: Yes
- Enzyme: major enzyme(s) involved in the bioactivation (denoted as *) or detoxification of the drug [12]: CYP2C9*
- Toxicity (mechanisms of toxicity) [12]: CB, OS

- IC50 [1]: 213 µM
- IC50 [4, 16]: 86 µM
- IC50 [4, 17]: 76 µM
- IC50 [4, 18]: < 50 µM
- MEC Calcium [6]: 100
- MEC MMP [6]: 200
- MEC Mitochondrial superoxide [6]: 200
- MEC ROS [6]: 100
- TR [6]: 6.4
Structure (SMILES): Cc1c(C)c2c(c(C)c1O)CCC(C)(COc1ccc(CC3SC(=O)NC3=O)cc1)O2 (stereo not drawn) [Troglitazone]
- TR ([5]; AdCYP 3A4 1x): 12.8
- MEC Apoptosis ([5]; AdCYP 3A4 1x): 100
- MEC Calcium ([5]; AdCYP 3A4 1x): 75
- MEC MMP ([5]; AdCYP 3A4 1x): 200
- MEC Mitochondrial superoxide ([5]; AdCYP 3A4 1x): 200
- MEC ROS ([5]; AdCYP 3A4 1x): 50
- TR ([5]; AdCYP 3A4 4x): 12.8
- MEC Apoptosis ([5]; AdCYP 3A4 4x): 75
- MEC Calcium ([5]; AdCYP 3A4 4x): 50
- MEC MMP ([5]; AdCYP 3A4 4x): 200
- MEC Mitochondrial superoxide ([5]; AdCYP 3A4 4x): 75
- MEC ROS ([5]; AdCYP 3A4 4x): 50
- TR ([5]; AdCYP 3A4 10x): 12.8
- MEC Apoptosis ([5]; AdCYP 3A4 10x): 50
- MEC Calcium ([5]; AdCYP 3A4 10x): 50
- MEC MMP ([5]; AdCYP 3A4 10x): 150
- MEC Mitochondrial superoxide ([5]; AdCYP 3A4 10x): 50
- MEC ROS ([5]; AdCYP 3A4 10x): 50
- MEC Apoptosis [6]: 100 µM
- Bioactivation [12]: Yes
- Enzyme: major enzyme(s) involved in the bioactivation (denoted as *) or detoxification of the drug [12]: CYP3A4*
- Toxicity (mechanisms of toxicity) [12]: MI, OS
- DILI category ([12]; ref Gustafsson et al. ([2014])): Severe
